Laboratory results: US10538487B2, “Sulfonylureas and related compounds and use of same” (priority 2015, dated 2020)
“And” between values parts separate entries of the source, which are not always exact repeats. Identical values can stand only once. Like-named read-outs stand apart in the source and are kept apart here.

Assay: Single dose pharmacokinetic study in mice (iv 4 mg/Kg, po 20 mg/Kg), plasma concentration post-dosing
Type: in vivo, mouse
Conditions: mouse
Procedure: This is advantageous leading to comparatively lower doses or less frequent administration. The procedure followed was: Male C57BL/6 mice were used at 7-9 weeks age with 3 animals per group. Mice were dosed with test compound using single intravenous bolus or oral gavage. Blood samples were taken via submandibular or saphenous vein for analysis of plasma concentrations of compound by LC-MS/MS at the following timepoints: IV (3 mice): 0.083, 0.25, 0.5, 1, 2, 4, 8 and 24 hours post dosing, PO (3 mice): 0.25, 0.5, 1, 2, 4, 8 and 24 hours post dosing. LC-MS/MS method for the quantitative determination of test compound in corresponding biological matrix was developed. […] The results are shown graphically in FIGS. 1A to 1C (MCC950) and FIGS. 2A to 2C (MCC7840).

[1] = IV 4 mg/Kg, individual mice M1-M3, 4 mg/kg
[2] = PO 20 mg/Kg, individual mice M4-M6, 20 mg/kg

In the case of `CC(C)(O)c1coc(S(=O)(=O)NC(=O)Nc2c3c(cc4c2CCC4)CCC3)c1` [MCC_000950_016, N-((1,2,3,5,6,7-hexahydro-s-indacen-4-yl)carbamoyl)-4-(2-hydroxypropan-2-yl)furan-2-sulfonamide, reference compound], the AUC0-inf (male, C57BL/6, mouse, plasma, po, 20 mg/kg, PO 20 mg/Kg, mean of 3 mice, read-out: AUC0-inf, Mean PO) is reported as 126 µg·h/mL, the AUC(0-t) (male, C57BL/6, mouse, plasma, po, 20 mg/kg, PO 20 mg/Kg, mean of 3 mice, read-out: AUC0-last, Mean PO) is reported as 125 µg·h/mL and the Cmax (male, C57BL/6, mouse, plasma, po, 20 mg/kg, PO 20 mg/Kg, mean of 3 mice, read-out: Cmax, Mean PO) is reported as 35000 ng/mL. The MRT inf (male, C57BL/6, mouse, plasma, po, 20 mg/kg, PO 20 mg/Kg, mean of 3 mice, read-out: MRT0-inf, Mean PO) was 3.63 h, the MRT last (male, C57BL/6, mouse, plasma, po, 20 mg/kg, PO 20 mg/Kg, mean of 3 mice, read-out: MRT0-last, Mean PO) was 3.6 h and the half-life (male, C57BL/6, mouse, plasma, po, 20 mg/kg, PO 20 mg/Kg, mean of 3 mice, read-out: T1/2, Mean PO (converted)) was 2.39 h. For the same compound, the Tmax (male, C57BL/6, mouse, plasma, po, 20 mg/kg, PO 20 mg/Kg, mean of 3 mice, read-out: Tmax, Mean PO) was 0.333 h, the “Plasma concentration, IV Time 5 min” value (IV 4 mg/Kg, 5 min post dosing, individual mice M1-M3, 4 mg/kg) was 17200 ng/mL and 17700 ng/mL and the “Plasma concentration, IV Time 0.250 h” value (IV 4 mg/Kg, 0.250 h post dosing, individual mice M1-M3, 4 mg/kg) was 10200 ng/mL and 12700 ng/mL. The “Plasma concentration, IV Time 0.500 h” value (IV 4 mg/Kg, 0.500 h post dosing, individual mice M1-M3, 4 mg/kg) was 9420 ng/mL and 10500 ng/mL, the “Plasma concentration, IV Time 1.00 h” value (IV 4 mg/Kg, 1.00 h post dosing, individual mice M1-M3, 4 mg/kg) was 7730 ng/mL and 8230 ng/mL and the “Plasma concentration, IV Time 2.00 h” value (IV 4 mg/Kg, 2.00 h post dosing, individual mice M1-M3, 4 mg/kg) was 6000 ng/mL and 5010 ng/mL. The “Plasma concentration, IV Time 4.00 h” value (IV 4 mg/Kg, 4.00 h post dosing, individual mice M1-M3, 4 mg/kg) was 2390 ng/mL and 2130 ng/mL, the “Plasma concentration, IV Time 8.00 h” value (IV 4 mg/Kg, 8.00 h post dosing, individual mice M1-M3, 4 mg/kg) was 843 ng/mL and 480 ng/mL and the “Plasma concentration, IV Time 24.0 h” value (IV 4 mg/Kg, 24.0 h post dosing, individual mice M1-M3, 4 mg/kg) was 2.33 ng/mL. For the same compound, the Tlast (IV 4 mg/Kg, individual mice M1-M3) was 24.0 h, the AUC0-inf [1] was 33.496 µg·h/mL and 30.758 µg·h/mL and the AUC0-last [1] was 33.489 µg·h/mL and 30.751 µg·h/mL. For the same compound, the AUCExtra [1] was 0.0226% and 0.0198% and 0.0224%, the AUMCExtra [1] was 0.219% and 0.187% and 0.251% and the C0 [1] was 22332 ng/mL and 20894 ng/mL. The Cl [1] was 1.99 mL/min/kg and 2.17 mL/min/kg, the MRT0-inf [1] was 2.84 h and 2.41 h and the MRT0-last [1] was 2.83 h and 2.40 h. The T1/2 [1] was 1.97 h and 2.05 h, the Vdss [1] was 0.339 L/kg and 0.313 L/kg and the “AUCExtra, Mean IV” value (IV 4 mg/Kg, mean of 3 mice) was 0.0216%. For the same compound, the “AUMCExtra, Mean IV” value (IV 4 mg/Kg, mean of 3 mice) was 0.219%, the “C0, Mean IV” value (IV 4 mg/Kg, mean of 3 mice) was 21974 ng/mL and the “Tlast, Mean IV” value (IV 4 mg/Kg, mean of 3 mice) was 24.0 h. The bioavailability (PO 20 mg/Kg vs IV 4 mg/Kg, Mean PO) was 71.0%, the “Plasma concentration, PO Time 0.250 h” value (PO 20 mg/Kg, 0.250 h post dosing, individual mice M4-M6, 20 mg/kg) was 21900 ng/mL and 29000 ng/mL and 48900 ng/mL and the “Plasma concentration, PO Time 0.500 h” value (PO 20 mg/Kg, 0.500 h post dosing, individual mice M4-M6, 20 mg/kg) was 34100 ng/mL and 35800 ng/mL. For the same compound, the “Plasma concentration, PO Time 1.00 h” value (PO 20 mg/Kg, 1.00 h post dosing, individual mice M4-M6, 20 mg/kg) was 33700 ng/mL and 37000 ng/mL, the “Plasma concentration, PO Time 2.00 h” value (PO 20 mg/Kg, 2.00 h post dosing, individual mice M4-M6, 20 mg/kg) was 22500 ng/mL and 26200 ng/mL and the “Plasma concentration, PO Time 4.00 h” value (PO 20 mg/Kg, 4.00 h post dosing, individual mice M4-M6, 20 mg/kg) was 13000 ng/mL and 10500 ng/mL. The “Plasma concentration, PO Time 8.00 h” value (PO 20 mg/Kg, 8.00 h post dosing, individual mice M4-M6, 20 mg/kg) was 2360 ng/mL and 4670 ng/mL, the “Plasma concentration, PO Time 24.0 h” value (PO 20 mg/Kg, 24.0 h post dosing, individual mice M4-M6, 20 mg/kg) was 60.7 ng/mL and 17.4 ng/mL and 39.3 ng/mL and the Tlast (PO 20 mg/Kg, individual mice M4-M6) was 24.0 h. The AUC0-inf [2] was 123.452 µg·h/mL and 144.868 µg·h/mL, the AUC0-last [2] was 123.399 µg·h/mL and 144.734 µg·h/mL and the AUCExtra [2] was 0.216% and 0.0429% and 0.0929%. For the same compound, the AUMCExtra [2] was 1.40% and 0.376% and 0.730%, the Cmax [2] was 21900 ng/mL and 34100 ng/mL and 48900 ng/mL and the MRT0-last [2] was 3.07 h and 3.47 h. For the same compound, the T1/2 [2] was 2.11 h and 2.37 h, the Tmax [2] was 0.500 h and the “AUCExtra, Mean PO” value (PO 20 mg/Kg, mean of 3 mice) was 0.117%. The “AUMCExtra, Mean PO” value (PO 20 mg/Kg, mean of 3 mice) was 0.835% and the “Tlast, Mean PO” value (PO 20 mg/Kg, mean of 3 mice) was 24.0 h.
